Positions of bridges follow the written chain, without caps; N, C: chain ends. Residues, ends and D or L forms follow the SMILES beside them. Chains are numbered I, II in the order given. *: point of attachment. Stearoyl = CCCCCCCCCCCCCCCCCC(=O)*; Palmitoyl = CCCCCCCCCCCCCCCC(=O)*
Columns and labels:
spleen of BALB/c mice = experiment: In vivo delivery of mRNA with CPPs - reporter levels in the spleen; conditions: mRNA, tail vein injection, spleens harvested 16 hours after single injection, whole tissue homogenate
Protocol: FIG. 5: Delivery of mRNA with CPPs in vivo—reporter levels in the spleen. Spleens were harvested post mortem 16 hours post-injection. The reporter levels (RLU) were evaluated from the whole tissue homogenate.
The transfection complexes (CPP/mRNA) were formed using 10 μg of mRNA mixed with each peptide at indicated charge ratios (CRs) in MQ water in a final volume of 100 μl. CRs were calculated theoretically and account for both the positive charges of the peptide and negative charges of the nucleic acid. The transfection complexes (CPP/mRNA and CPP/pDNA) were formed using 50 μg of mRNA mixed with each peptide at indicated charge ratios (CRs) in MQ water in a final volume of 168 μl. The complexes were incubated for 30 minutes at room temperature and then mixed with equal volume of 10% glucose (resulting in a final solution of 5% glucose in a total volume of 200 μl for 10 μg dose groups and 336 μl for 50 μg dose groups) and immediately injected intravenously via the tail vein.
The reporter gene (luciferase) expression levels were evaluated from the tissue homogenate post mortem 16-24 h after single injection.
CPPs and mRNA complexes were injected through the tail vein of BALB/c mice, spleens were harvested 16 hours after the single injection and reporter signal was measured from the whole tissue homogenate (FIG. 5 and Table 5).

CHO-K1 cells = experiment: Delivery of reporter mRNA with CPPs in cell culture (luciferase luminescence 24 h post-transfection); type: cell-based; conditions: for Average RLU/mg (reporter levels post-transfection of mRNA): firefly luciferase mRNA, 0.1 μg per well, charge ratio 3:1, serum containing media, 24 h, RLU normalised to total protein in lysate
Protocol: FIG. 1: Delivery of reporter mRNA with CPPs in cell culture—evaluation of reporter levels post-transfection (relative light units normalised to total protein in the cell lysate (RLU/mg)). Naked mRNA treated cells were used as controls and Lipofectamine3000 (LF3000) was used to compare the transfection efficacy with a liposome-based transfection reagent.
Adherent CHO-K1 cells were grown in Dulbecco's Modified Eagle's Medium (DMEM), which were supplemented with 0.1 mM non-essential amino acids, 1.0 mM sodium pyruvate, 100 U/ml penicillin, and […]. For complete media, 10% (final) fetal bovine serum (FBS) was added. Cells were maintained in a humidified incubator at 37 °C, 5% CO2. Cell viability and confluence was assessed daily and the cell density was reduced regularly. For cell counting, we used the CytoSMART cell counter accompanied by 0.4% trypan blue staining prior measurement. The multi-well plates with cell cultures used for experiments were incubated in a humidified incubator at 37 °C, 5% CO2.
For in vitro experiments 0.1 μg of nucleic acid (plasmid DNA (pDNA) or mRNA) was used per 96-well plate well. For CPP/NA complex formation, the diluted NA was mixed with CPP in water. Complexes were formed based on the theoretical charge ratio (CR) of positive charges from the peptide in excess to the negative charges from nucleic acid backbone, at charge ratio 3:1 with peptide in excess. Commercial reagent Lipofectamine3000 (LF3000) was used according to the manufacturer's recommendations for the transfection of adherent cells.
For reporter luminescence (expressed from firefly luciferase encoding mRNA or plasmid pDNA) assessment in adherent cell culture, 10,000 cells per 96-well plate well were seeded in 100 μl of media one day prior to transfection. Shortly before transfection, cell media was replaced with 100 μl of serum containing (10% foetal bovine serum) DMEM media. CPPs and mRNA or pDNA were mixed at a charge ratio 3:1 in ultrapure water and incubated at room temperature before addition to cells in serum containing media. Cells were transfected with 0.1 μg of mLuc per well.
24 hours post-transfection, the media was aspirated, cells were washed with 1×PBS, and 30 μl of lysis buffer (0.1% Triton X100 in 1×PBS) was added. Cells were incubated with lysis buffer for 20 min. to lyse the cells. From the lysate, 20 μl was transferred to a black frame white well 96-well plate for luminescence measurement after addition of substrate luciferin (PerkinElmer) in buffer. The luminescence signal was detected with GloMax® 96 microplate luminometer equipped with GloMax® 1.9.2 software (Promega). RLU values were converted to RLU/mg by normalization to total protein in cell lysate, reflecting total number of cells. For protein detection, a Pierce™ BCA Protein Assay Kit was used.
The present inventors have previously reported CPPs developed from the NickFect (NF) and PepFect (PF) families for plasmid (pDNA), siRNA and miRNA delivery (see, e.g. WO 2020/144317, WO 2010/039088 and WO 2012/113846). With the emergence of mRNA-based therapeutics, it was decided to investigate peptides for their ability to deliver mRNA. It was assumed that CPPs that are efficient for siRNA and miRNA delivery, e.g. histidine containing CPPs (Porosk et. al. (2019)), may be good candidates for the delivery of mRNA. Therefore, CPPs from each main family (NF55-, PF14- and NF70-derived CPPs) were tested for mRNA delivery/transfection. Naked mRNA treated and untreated cells were used as control groups. LF3000 was used to compare the transfection efficacy of liposome-based transfection reagents with the CPPs (FIG. 1).

| Structure (SMILES) | Reporter levels in the spleen (RLU) (spleen of BALB/c mice) | Average RLU/mg (reporter levels post-transfection of mRNA) (CHO-K1 cells) | Efficiency of mRNA transfection/delivery (CHO-K1 cells; in words, FIG. 1 / Table 2, cell culture) | Delivery of mRNA compared to NF55 (CHO-K1 cells; in words, comparator NF55) |
| --- | --- | --- | --- | --- |
| CCCCCCCCCCCCCCCC(=O)N[C@@H](C)C(=O)NCC(=O)N[C@@H](Cc1ccc(O)cc1)C(=O)N[C@@H](CC(C)C)C(=O)N[C@@H](CC(C)C)C(=O)NCC(=O)NCCCC[C@H](N)C(=O)N[C@H](C(=O)N[C@@H](CC(N)=O)C(=O)N[C@@H](CC(C)C)C(=O)N[C@@H](CCCCN)C(=O)N[C@@H](C)C(=O)N[C@@H](CC(C)C)C(=O)N[C@@H](C)C(=O)N[C@@H](C)C(=O)N[C@@H](CC(C)C)C(=O)N[C@@H](C)C(=O)N[C@@H](CCCCN)C(=O)N[C@@H](C)C(=O)N[C@H](C(=O)N[C@@H](CC(C)C)C(N)=O)[C@@H](C)CC)[C@@H](C)CC [NF420] (I: H-KINLKALAALAKAIL-NH2 / II: Palmitoyl-AGYLLG; amide I:1-II:C) | 81 271 RLU | 548 000 000 RLU/mg |  |  |
| CCCCCCCCCCCCCCCCCC(=O)N[C@@H](C)C(=O)NCC(=O)N[C@@H](Cc1ccc(O)cc1)C(=O)N[C@@H](CC(C)C)C(=O)N[C@@H](CC(C)C)C(=O)NCC(=O)NCCCC[C@H](N)C(=O)N[C@H](C(=O)N[C@@H](CC(N)=O)C(=O)N[C@@H](CC(C)C)C(=O)N[C@@H](CCCCN)C(=O)N[C@@H](C)C(=O)N[C@@H](CC(C)C)C(=O)N[C@@H](C)C(=O)N[C@@H](C)C(=O)N[C@@H](CC(C)C)C(=O)N[C@@H](C)C(=O)N[C@@H](CCCCN)C(=O)N[C@@H](C)C(=O)N[C@H](C(=O)N[C@@H](CC(C)C)C(N)=O)[C@@H](C)CC)[C@@H](C)CC [NF554] (I: H-KINLKALAALAKAIL-NH2 / II: Stearoyl-AGYLLG; amide I:1-II:C) | 83 650 RLU | 1 690 000 000 RLU/mg | the most efficient | improved delivery of mRNA over NF55 |

From patent US20260355330A1, “CELL PENETRATING PEPTIDES AND USES THEREOF” (VECTIOPEP OÜ, priority 2022, published 2026)
